In the assay the target is T1, IspE (4-diphosphocytidyl-2-c-methyl-d-erythritol kinase; Rv1011) (Mycobacterium tuberculosis, UniProt P9WKG7).
T1 sequence (P9WKG7 2-318): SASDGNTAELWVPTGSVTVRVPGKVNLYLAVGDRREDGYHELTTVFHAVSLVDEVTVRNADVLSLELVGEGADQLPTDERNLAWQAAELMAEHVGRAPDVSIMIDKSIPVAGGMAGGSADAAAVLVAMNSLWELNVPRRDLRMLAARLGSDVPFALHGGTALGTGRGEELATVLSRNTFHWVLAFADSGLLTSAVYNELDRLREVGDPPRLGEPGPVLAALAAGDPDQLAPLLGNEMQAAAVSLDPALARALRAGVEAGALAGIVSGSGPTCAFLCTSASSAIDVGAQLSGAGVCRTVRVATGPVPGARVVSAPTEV
As to the kind of experiment: ADP Quest HS coupled fluorescent kinase assay (resorufin) with Rv1011, ATP and CDP-ME. Format: biochemical.

One may read the IC50 as the midpoint of a concentration-inhibition curve.

In turn, `Cc1ccc([C@H]2c3c([nH]n(-c4ccccc4)c3=O)NC3=C[C@H](C)CC(=O)[C@H]32)cc1` [A1] had an IC50 of 15.6 µM.

The values are drawn from article PMC10819746, “Investigating Novel IspE Inhibitors of the MEP Pathway in Mycobacterium” (Microorganisms, 2023).
